Tests used:
[1] = test system: immobilized Fuchs' endothelial corneal dystrophy patient derived cells (iFECD); assay: Cell damage in iFECD due to TGF-β2, phase difference microscope (Example 9); assay type: cell-based, human; settings: TGF-β2 10 ng/mL, inhibitor 10 μM, 24 hours
Method: 1.2×10^5 iFECDs were seeded on a 12-well plate coated without coating and were cultured for 24 hours under the condition of 5% CO2 at 37° C. Dulbecco's Modified Eagle Medium (nacalai tesque, 26252-94)+10% FBS (Biological Industries/04-001-1A)+1% Penicillin-Streptomycin (nacalai tesque, 26252-94) was used as the medium.
After 24 hours from seeding, each inhibitor was added at a concentration of 10 μM and the cells were incubated for 24 hours under the condition of 5% CO2 at 37° C. The medium was exchanged for the control group and the TGF-β2 group. DMEM+2% FBS+1% P/S was used as the medium.
SB431542 (Wako Pure Chemical Industries, Ltd./192-16541); Z-VAD-FMK (Peptide Institute/3188-v); Z-VD-FMK (isomer mixture) (Wako Pure Chemical Industries, Ltd./262-02061); and emricasan (CHEMSCENE, LLC/CS-0599).
Next, TGF-β2 (manufacturer: R&D Systems, Inc., distributor: Wako Pure Chemical Industries, Ltd./manufacturer codes 302-B2-002, 302-B2-010, distributor codes: 553-62881, 5-59-62883) (10 ng/mL) alone, or both TGF-β2 (10 ng/mL) and each inhibitor (10 μM) were added. After 24 hours, cell morphology and programmed cell death were observed using a phase difference microscope.

p-Smad2 = p-Smad2 western blot in iFECD with TGF-β2 (Example 17); assay type: cell-based, human; settings: TGF-β2 10 ng/mL, inhibitor 10 μM, 24 hours
Method: IFECDs were seeded at 1.0×10^5 each on a 12-well plate and cultured at 37° C. (5% CO2) until reaching 60 to 70% confluence. Dulbecco's Modified Eagle Medium (DMEM, nacalai tesque, 08456-36)+10% FBS (Thermo Fisher Scientific, S1820-500)+1% penicillin-streptomycin (nacalai tesque, 26252-94) was used as the medium. SB431542 (Wako Pure Chemical Industries, Ltd./192-16541), Z-VD-FMK (isomer mixture) (Wako Pure Chemical Industries, Ltd./262-02061), and emricasan (CHEMSCENE, LLC/CS-0599) were then added at a concentration of 10 μM, and the cells were incubated for 24 hours. The medium was exchanged in the control group and the TFG-β2 supplemented group. DMEM+2% FBS+1% P/S was used as the medium. TGF-β2 alone (10 ng/mL), or both TGF-β2 (10 ng/mL) and each inhibitor (10 μm) were added. After 24 hours, proteins were collected by the following method.
The medium was collected on ice to collect free and dead cells. The solution from washing the cells twice with 1×PBS (−) was also collected, and was centrifuged at 4° C. at 800×g for 15 minutes. The supernatant was discarded to obtain precipitates. […]
Chemi Lumi ONE Ultra (nacalai tesque, 11644-40) was used for detection. The detected band strength was analyzed with Amersham™ Imager 600 (GE Healthcare).

fibronectin = assay: Fibronectin production due to TGF-β2 in iFECD, immunostaining and western blot (Example 17); assay type: cell-based, human; settings: TGF-β2 10 ng/mL, inhibitor 10 μM, 24 hours
Method: Round glass was placed on a 24-well plate, disinfected for 5 minutes with ethanol, and coated with laminin-511 E8 Fragment. Then, iFECDs were seeded at 4.0×10^5 each and cultured at 37° C. (5% CO2) until reaching 60 to 70% confluence. Dulbecco's Modified Eagle Medium (DMEM, nacalai tesque, 08456-36)+10% FBS (Thermo Fisher Scientific, S1820-500)+1% penicillin-streptomycin (nacalai tesque, 26252-94) was used as the medium. SB431542 (Wako Pure Chemical Industries, Ltd./192-16541), Z-VD-FMK (isomer mixture) (Wako Pure Chemical Industries, Ltd./262-02061), and emricasan (CHEMSCENE, LLC/CS-0599) were then added at a concentration of 10 μM, and the cells were incubated for 24 hours. The medium was exchanged in the control group and the TFG-β2 supplemented group. DMEM+2% FBS+1% P/S was used as the medium. TGF-β2 alone (10 ng/mL), or both TGF-β2 (10 ng/mL) and each inhibitor (10 μM) were then added. After 24 hours, immunostaining was performed by the following method.
Cells after 24 hours form stimulation were washed with PBS (−) and immobilized with 4% PFA for 10 minutes at room temperature. 0.5% Triton was used for 5 minutes for permeation treatment, and 1% BSA was used for blocking for 1 hour. […] A confocal microscope (Leica Microsystems CMS GmcH Am Friendensplatz 3 68165 Mannheim, Germany) was used to observe fluorescence. […]

caspase 3 = assay: Western blot of caspase 3 after UV irradiation (Example 2); assay type: cell-based, monkey; settings: UV 100 J/m^2, 9 hours
Method: 1×10^5 cultured monkey corneal endothelial cells were seeded on a 12-well plate coated with FNC Coating Mix and were cultured until reaching confluence under the condition of 5% CO2 at 37° C. Dulbecco's Modified Eagle Medium (DMEM) (Gibco, 12320-032)+10% FBS+1% Penicillin-Streptomycin (nacalai tesque, 26252-94) was used as the medium.
Each inhibitor was added at the above concentration. The cells were incubated for 18 hours under the condition of 5% CO2 at 37° C. The control group and the UV irradiation group were supplemented with a solvent of each reagent, i.e., DMSO (Dimethyl Sulfoxide, Sterile-filtered) (nacalai tesque, 13408-64). Gibco DMEM+1% P/S (penicillin-streptomycin mixture) was used as the medium.
The cell supernatant was then removed, and the cells were irradiated with UV (100 J/m^2). After irradiation, media containing each inhibitor were added to the cells again. The cells were cultured for 9 hours.
The cell morphology was observed under a phase difference microscope. After observation, western blot was performed on proteins by the following procedure.
The medium was collected on ice to collect free and dead cells. The solution from washing the cells twice with 1×PBS (−) was also collected. 800 g was centrifuged at 4° C. for 5 minutes. The supernatant was discarded to obtain precipitates. The washed cells were supplemented with a protein extraction buffer (RIPA; 50 mM Tris-HCl (pH 7.4), 150 mM NaCl, 1 mM EDTA, 0.1% SDS, 0.5% DOC, 1% NP-40) on ice to extract proteins. The precipitates from centrifuging the free and dead cells were also subsequently suspended together for extraction. The collected solution was pulverized three times for 30 seconds in cold water with a sonication device (BIORUPTOR, TOSHO DENKI) and centrifuged for 10 min at 4° C. at 15000 rpm to collect the supernatant of proteins.
8 μg of the extracted protein was separated by SDS-PAGE and transferred onto a nitrocellulose membrane. A rabbit anti-caspase 3 antibody (Cell Signaling, 9662), rabbit anti-PARP antibody (Cell Signaling, 9542), and mouse anti-GAPDH antibody (MBL, M171-3) were used as the primary antibodies. A peroxidase-labeled anti-rabbit antibody and anti-mouse antibody (GE Healthcare Biosciences, NA934V, NA931V) were used as the secondary antibodies. For the primary antibodies, rabbit anti-caspase 3 antibody and rabbit anti-PARP antibody: 1000-fold dilution and mouse anti-GAPDH antibody: 3000-fold dilution, while the secondary antibody was diluted 5000-fold. Chemi Lumi ONE Ultra (nacalai tesque, 11644-40) was used for detection. The detected band strength was analyzed with a lumino image analyzer LAS-4000 mini (Fuji Film) and ImageQuant™ software (GE Healthcare).

rabbit cornea = assay: Cornea preservation using rabbit cornea in Optisol-GS (Example 11); assay type: cell-based; settings: 2 weeks of preservation at 4° C., 10 μM in Optisol-GS
Method: Rabbit eye balls after 0 to 24 hours from euthanasia were used in the experiment. Under a stereoscopic microscope, the sclera was excised using spring scissors along the corneal limbus, and the lens and iris were removed to prepare a sclerocornea fragment. The sclerocornea fragment was divided into two pieces as the control group and emricasan supplemented groups. After dividing the cornea, the control group was left standing in DMSO supplemented Optisol-GS® (Bausch & Lomb) and the caspase inhibitor supplemented groups were left standing in Optisol-GS® supplemented with emricasan for 2 weeks at 4° C.
After washing the sclerocornea fragment with PBS (−), the fragment was immobilized with 4% formaldehyde for 10 minutes at room temperature (RT) and incubated for 60 minutes with 1% bovine serum albumin (BSA). Antibodies to N-cadherin (BD Bioscience) and ZO-1 (Zymed Laboratories) were used at 1:300 dilution. For secondary antibodies, Alexa Fluor® 488 labeled goat anti-mouse IgG (Life Technologies, A11009) was used at a dilution of 1:1000. A 1:400 dilution of phalloidin (Life Technologies) 546 was used for actin staining. […] Fluorescence was observed using a confocal microscope (TCS SP2 AOBS; Leica Microsystems, Wetzlar Germany). Cells found to have actin contractile rings under a fluorescence microscope were counted to measure the ratio.

Structure (SMILES)	programmed cell death [1]	phosphorylated Smad2 (p-Smad2) (p-Smad2)	expression / overexpression of fibronectin (fibronectin)	inactive form cleaved caspase 3 of about 19 kDa (caspase 3; addition of 1 and 3 μM)	active form cleaved caspase 3 of about 17 kDa (caspase 3; all tested concentrations)	inactive form cleaved caspase 3 of about 19 kDa (caspase 3; other concentrations (10, 30, 100 μM))	actin contractile rings (rabbit cornea)	cell damage (rabbit cornea)	effect of suppressing caspase 3 (caspase 3; concentration of 100 μM)
NC(=O)c1ccc(-c2nc(-c3ccc4c(c3)OCO4)c(-c3ccccn3)[nH]2)cc1 [SB431542]	suppressed	not found	suppressed						
C[C@H](NC(=O)C(=O)Nc1ccccc1C(C)(C)C)C(=O)N[C@@H](CC(=O)O)C(=O)COc1c(F)c(F)cc(F)c1F [emricasan, 3-[2-[(2-tert-butyl-phenylaminooxalyl)-amino]-propionylamino]-4-oxo-5-(2,3,5,6-tetrafluoro-phenoxy)-pentanoic acid]		found	suppressed	hardly observed	not observed	not observed	significantly suppressed	hardly any cell damage	
CC(C)[C@@]1(C(=O)N[C@H]2CC(=O)O[C@]2(O)CF)CC(c2nccc3ccccc23)=NO1 [nivocasan, (R)—N-((2S,3S)-2-(fluoromethyl)-2-hydroxy-5-oxotetrahydrofuran-3-yl)-5-isopropyl-1-3-(isoquinoline-1-yl)-4,5-dihydroisoxazole-5-carboxamide]									observed

— patent US11446263B2, “Caspase inhibitor-containing drug for treating or preventing disorders caused by TGF-β, and applications thereof” (The Doshisha, priority 2015, dated 2022)
